From US5902812A, “Pharmaceutical piperazine compounds” (Xenova Limited, priority 1994, dated 1999)
Structures can show the parent of a compound that is named as a salt. Where two headings read alike, the source gives them in different places. Each block holds one compound with its values, some of them ahead of it.

Target: PAI-1 (Homo sapiens, UniProt P05121)
Experiment: biochemical
Conditions: for inhibition at 20 µM / inhibition at 6.25 µM / inhibition at 12.5 µM / inhibition at 25 µM / inhibition at 50 µM / inhibition at 100 µM: read-out: Degree of inhibition in PAI chromogenic substrate assay; for IC50: PAI chromogenic substrate assay, read-out: IC50

PAI-1, sequence (P05121 24-402): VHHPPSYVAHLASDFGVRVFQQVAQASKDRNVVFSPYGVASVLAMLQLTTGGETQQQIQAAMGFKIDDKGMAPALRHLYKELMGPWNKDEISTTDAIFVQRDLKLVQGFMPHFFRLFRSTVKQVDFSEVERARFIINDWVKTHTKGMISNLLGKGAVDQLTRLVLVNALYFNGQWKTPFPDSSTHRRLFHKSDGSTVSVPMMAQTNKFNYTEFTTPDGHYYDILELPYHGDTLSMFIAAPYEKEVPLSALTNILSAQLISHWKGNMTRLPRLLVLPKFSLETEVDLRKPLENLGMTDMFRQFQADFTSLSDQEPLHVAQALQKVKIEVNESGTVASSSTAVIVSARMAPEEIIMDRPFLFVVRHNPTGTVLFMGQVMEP

inhibition at 20 µM (20 μM (third part of Table 1)): 54% | IC50: 4.2 µM
Structure (SMILES): CN(C)CCCOc1ccc(/C=c2\[nH]c(=O)/c(=C/c3ccc(Cl)c([N+](=O)[O-])c3)[nH]c2=O)cc1 [Compound 5398, (3Z,6Z)-3-(4-Chloro-3-nitrobenzylidene)-6-(4-(3-dimethylaminopropoxy)benzylidene)-2,5-piperazinedione]

inhibition at 20 µM (20 μM (third part of Table 1)): 6% | inhibition at 50 µM (50 μM (third part of Table 1)): 6% | inhibition at 100 µM (100 μM (third part of Table 1)): 40%
Structure (SMILES): CN(C)CCOCc1ccc(/C=c2\[nH]c(=O)/c(=C/c3ccccc3Br)[nH]c2=O)cc1 [Compound 5070.HCl, (3Z,6Z)-3-(2-Bromobenzylidene)-6-(4-(2-dimethylaminoethoxymethyl)benzylidene)-2,5-piperazinedione]

inhibition at 20 µM (20 μM (third part of Table 1)): 42% | inhibition at 100 µM (100 μM (third part of Table 1)): 36% | IC50: 1.5 µM
Structure (SMILES): CN(C)CCCOc1ccc(/C=c2\[nH]c(=O)/c(=C/c3cccc([N+](=O)[O-])c3)[nH]c2=O)cc1 [Compound 5231, (3Z,6Z)-6-(4-(3-Dimethylaminopropoxy)benzylidene)-3-(3-nitrobenzylidene)-2,5-piperazinedione]

inhibition at 20 µM (20 μM (third part of Table 1)): 42%
Structure (SMILES): COC(=O)c1ccc(/C=c2\[nH]c(=O)/c(=C/c3ccc(OCCCN(C)C)cc3)[nH]c2=O)cc1 [Compound 5401, Methyl 4((3Z,6Z)-6-(4-(3-Dimethylaminopropoxy)benzylidene)-2,5-dioxo-3-piperazinylidene)methylbenzoate]

Degree of inhibition in PAI chromogenic substrate assay (20 μM (third part of Table 1), 20 µM): 34%
Structure (SMILES): CN(C)CCCOc1ccc(/C=c2\[nH]c(=O)/c(=C/c3ccc(C(N)=O)cc3)[nH]c2=O)cc1 [Compound 5246, 4-((3Z,6Z)-6-(4-(3-Dimethylaminopropoxy)benzylidene)-2,5-dioxo-3-piperazinylidene)methylbenzamide]

inhibition at 20 µM (20 μM (third part of Table 1)): 20%
Structure (SMILES): CN(C)CCCOc1ccc(/C=c2\[nH]c(=O)/c(=C/c3ccc(C(=O)Nc4ccccc4)cc3)[nH]c2=O)cc1 [Compound 5343, 4-((3Z,6Z)-6-(4-(3-Dimethylaminopropoxy)benzylidene)-2,5-dioxo-3-piperazinylidene)methylbenzanilide]

inhibition at 20 µM (20 μM (third part of Table 1)): 10% | inhibition at 100 µM (100 μM (third part of Table 1)): 25% | IC50: 14 µM
Structure (SMILES): CCCCOc1ccc(/C=c2\[nH]c(=O)/c(=C/c3ccc(OCCCN(C)C)cc3)[nH]c2=O)cc1 [Compound 5250]

IC50: 3.7 µM
Structure (SMILES): CN(C)CCCOc1ccc(/C=c2\[nH]c(=O)/c(=C/c3ccc4c(c3)OCO4)[nH]c2=O)cc1 [Compound 5229, (3Z,6Z)-6-(4-(3-Dimethylaminopropoxy)benzylidene)-3-(3,4-methylenedioxybenzylidene)-2,5-piperazinedione]

inhibition at 20 µM (20 μM (third part of Table 1)): 10% | inhibition at 100 µM (100 μM (third part of Table 1)): 58% | IC50: 100 µM
Structure (SMILES): Cc1cccc(/C=c2\[nH]c(=O)/c(=C/c3ccc(OCCCN(C)C)cc3)[nH]c2=O)c1 [Compound 5187, (3Z,6Z)-6-(4-(3-Dimethylaminopropoxy)benzylidene)-3-(3-methylbenzylidene)-2,5-piperazinedione]

IC50: 11 µM
Structure (SMILES): CN(C)CCCOc1ccc(/C=c2\[nH]c(=O)/c(=C/c3cc(Cl)cc(Cl)c3)[nH]c2=O)cc1 [Compound 5372, (3Z,6Z)-3-(3,5-Dichlorobenzylidene)-6-(4-(3-dimethylaminopropoxy)benzylidene)-2,5-piperazinedione]

inhibition at 20 µM (20 μM (third part of Table 1)): 40%
Structure (SMILES): CN(C)CCCOc1ccc(/C=c2\[nH]c(=O)/c(=C/c3ccc(C(=O)NCc4ccccc4)cc3)[nH]c2=O)cc1 [Compound 5344, N-Benzyl-4-((3Z,6Z)-6-(4-(3-Dimethylaminopropoxy)benzylidene)-2,5-dioxo-3-piperazinylidene)methylbenzamide]

inhibition at 20 µM (20 μM (third part of Table 1)): 1% | inhibition at 100 µM (100 μM (third part of Table 1)): 21%
Structure (SMILES): COc1ccccc1/C=c1\[nH]c(=O)/c(=C/c2ccc(OCCCN(C)C)cc2)[nH]c1=O [Compound 5241, (3Z,6Z)-6-(4-(3-Dimethylaminopropoxy)benzylidene)-3-(2-methoxybenzylidene)-2,5-piperazinedione]

inhibition at 20 µM (20 μM (third part of Table 1)): 10% | inhibition at 100 µM (100 μM (third part of Table 1)): 55%
Structure (SMILES): CN(C)CCCOc1ccc(/C=c2\[nH]c(=O)/c(=C/c3ccccc3Cl)[nH]c2=O)cc1 [Compound 5249, (3Z,6Z)-3-(2-Chlorobenzylidene)-6-(4-(3-dimethylaminopropoxy)benzylidene)-2,5-piperazinedione]

inhibition at 20 µM (20 μM (third part of Table 1)): 72% | Degree of inhibition in PAI chromogenic substrate assay (100 μM (third part of Table 1), 100 µM): 67% | IC50: 4 µM
Structure (SMILES): CN(C)CCCOc1ccc(/C=c2\[nH]c(=O)/c(=C/c3cccc(Cl)c3)[nH]c2=O)cc1 [Compound 5237]

IC50: 6.5 µM
Structure (SMILES): CN(C)CCCOc1ccc(/C=c2\[nH]c(=O)/c(=C/c3ccc(F)cc3)[nH]c2=O)cc1 [Compound 5365, (3Z,6Z)-3-(4-(3-Dimethylaminopropoxy)benzylidene)-6-(4-fluorobenzylidene)-2,5-piperazinedione]

The next lines start with the compound.

Structure (SMILES): CCCCCCOc1ccc(/C=c2\[nH]c(=O)/c(=C/c3ccc(OC)cc3)[nH]c2=O)cc1 [Compound 1907, (3Z,6Z)-3-(4-Hexyloxybenzylidene)-6-(4-methoxybenzylidene)-2,5-piperazinedione]
inhibition at 6.25 µM (6.25 μM): 10% | inhibition at 12.5 µM (12.5 μM): 23% | inhibition at 25 µM (25 μM): 37% | inhibition at 50 µM (50 μM): 69% | inhibition at 100 µM (100 μM): 80%

Structure (SMILES): CN(C)CCCOc1ccc(/C=c2\[nH]c(=O)/c(=C/c3ccc(N(C)C)cc3)[nH]c2=O)cc1 [Compound 5068.HCl, (3Z,6Z)-3-(4-Dimethylaminobenzylidene)-6-(4-(3-dimethylaminopropoxy)benzylidene)-2,5-piperazinedione]
inhibition at 20 µM (20 μM (third part of Table 1)): 81% | inhibition at 50 µM (50 μM (third part of Table 1)): 76% | inhibition at 100 µM (100 μM (third part of Table 1)): 75%

Structure (SMILES): CN(C)CCOc1ccc(/C=c2\[nH]c(=O)/c(=C/c3ccccc3)[nH]c2=O)cc1 [Compound 1956]
Degree of inhibition in PAI chromogenic substrate assay (6.25 μM): 31% | Degree of inhibition in PAI chromogenic substrate assay (12.5 μM): 65% | Degree of inhibition in PAI chromogenic substrate assay (25 μM): 69% | Degree of inhibition in PAI chromogenic substrate assay (50 μM): 69% | Degree of inhibition in PAI chromogenic substrate assay (100 μM): 61%

Structure (SMILES): CN(C)CCSCc1ccc(/C=c2\[nH]c(=O)/c(=C/c3ccccc3)[nH]c2=O)cc1 [Compound 5058, (3Z,6Z)-6-Benzylidene-3-(4-(2-Dimethylaminoethylthiomethyl)benzylidene)-2,5-piperazinedione]
inhibition at 20 µM (20 μM (third part of Table 1)): 75% | inhibition at 50 µM (50 μM (third part of Table 1)): 68% | inhibition at 100 µM (100 μM (third part of Table 1)): 67%

Structure (SMILES): CCN(CC)CCOc1ccc(/C=c2\[nH]c(=O)/c(=C/c3ccccc3)[nH]c2=O)cc1 [Compound 5065.HCl]
inhibition at 20 µM (20 μM (third part of Table 1)): 12% | inhibition at 50 µM (50 μM (third part of Table 1)): 80% | inhibition at 100 µM (100 μM (third part of Table 1)): 85%

Structure (SMILES): COc1ccc(/C=c2\[nH]c(=O)/c(=C/c3ccc(OCCN(C)C)cc3)[nH]c2=O)cc1 [Compound 1911]
inhibition at 6.25 µM (6.25 μM): 13% | inhibition at 12.5 µM (12.5 μM): 20% | inhibition at 25 µM (25 μM): 15% | inhibition at 50 µM (50 μM): 23% | inhibition at 100 µM (100 μM): 38%

Structure (SMILES): CN(C)CCOc1ccc(/C=c2\[nH]c(=O)/c(=C/c3ccccc3)[nH]c2=O)cc1 [Compound 1908, (3Z,6Z)-3-Benzylidene-6-(4-(2-dimethylaminoethoxy)benzylidene)-2,5-piperazinedione]
Degree of inhibition in PAI chromogenic substrate assay (6.25 μM): 12% | Degree of inhibition in PAI chromogenic substrate assay (12.5 μM): 29% | Degree of inhibition in PAI chromogenic substrate assay (25 μM): 66% | Degree of inhibition in PAI chromogenic substrate assay (50 μM): 69% | Degree of inhibition in PAI chromogenic substrate assay (100 μM): 74%

Structure (SMILES): CN(C)CCCOc1ccc(/C=c2\[nH]c(=O)/c(=C/c3ccc(OCCCN(C)C)cc3)[nH]c2=O)cc1 [Compound 1955, (3Z,6Z)-3,6-Di-(4-(3-dimethylaminopropoxy)benzylidene)-2,5-piperazinedionebis hydrogen succinate (1:2)]
Degree of inhibition in PAI chromogenic substrate assay (6.25 μM): 0% | inhibition at 12.5 µM (12.5 μM): 2% | inhibition at 25 µM (25 μM): 3% | inhibition at 50 µM (50 μM): 2% | inhibition at 100 µM (100 μM): 9%

Structure (SMILES): CCCCCCC(=O)Oc1ccc(/C=c2\[nH]c(=O)/c(=C/c3ccc(OC)cc3)[nH]c2=O)cc1 [Compound 1887, (3Z,6Z)-3-(4-Heptanoyloxybenzylidene)-6-(4-methoxybenzylidene)-2,5-piperazinedione]
inhibition at 6.25 µM (6.25 μM): 0% | inhibition at 12.5 µM (12.5 μM): 5% | inhibition at 25 µM (25 μM): 24% | inhibition at 50 µM (50 μM): 46% | inhibition at 100 µM (100 μM): 83%

Structure (SMILES): CN(C)CCOc1ccc(/C=c2\[nH]c(=O)/c(=C/c3ccc(OCCN(C)C)cc3)[nH]c2=O)cc1 [Compound 1962, (3Z,6Z)-3,6-Di-(4-(2-dimethylaminoethoxy)benzylidene)-2,5-piperazinedione dihydrochloride]
inhibition at 6.25 µM (6.25 μM): 1% | inhibition at 12.5 µM (12.5 μM): 1% | inhibition at 25 µM (25 μM): 1% | inhibition at 50 µM (50 μM): 2% | inhibition at 100 µM (100 μM): 2%

Structure (SMILES): CN(C)CCOc1ccc(/C=c2\[nH]c(=O)/c(=C/c3c(Cl)cccc3Cl)[nH]c2=O)cc1 [Compound 1952]
inhibition at 6.25 µM (6.25 μM): 0% | Degree of inhibition in PAI chromogenic substrate assay (12.5 μM): 1% | Degree of inhibition in PAI chromogenic substrate assay (25 μM): 19% | inhibition at 50 µM (50 μM): 37% | inhibition at 100 µM (100 μM): 63%

Structure (SMILES): CCCCOc1ccc(/C=c2\[nH]c(=O)/c(=C/c3ccc(OCCCN(C)C)cc3)[nH]c2=O)cc1 [Compound 1920, (3Z,6Z)-3-(4-Butoxybenzylidene)-6-(4-(3-dimethylaminopropoxy)benzylidene)-2,5-piperazinedione]
inhibition at 6.25 µM (6.25 μM): 33% | inhibition at 12.5 µM (12.5 μM): 50% | inhibition at 25 µM (25 μM): 57% | inhibition at 50 µM (50 μM): 66% | inhibition at 100 µM (100 μM): 68%

Structure (SMILES): CN(C)CCOc1ccc(/C=c2\[nH]c(=O)/c(=C/c3c(Cl)cccc3Cl)[nH]c2=O)cc1 [Compound 1980, (3Z,6Z)-3-(2,6-Dichlorobenzylidene)-6-(4-(2-dimethylaminoethoxy)benzylidene)-2,5-piperazinedione]
Degree of inhibition in PAI chromogenic substrate assay (6.25 μM): 0% | Degree of inhibition in PAI chromogenic substrate assay (12.5 μM): 13% | Degree of inhibition in PAI chromogenic substrate assay (25 μM): 51% | Degree of inhibition in PAI chromogenic substrate assay (50 μM): 41% | Degree of inhibition in PAI chromogenic substrate assay (100 μM): 66%
